Positions of bridges follow the written chain, without caps; N, C: chain ends. No end group written: not given here.
Key:
cell line Capan-1 = experiment: Studies of PCI disappearance from the culture medium; assay type: cell-based, human; conditions: 50 μg/mL flask, 24 h; CPA inhibitory activity and ELISA
Method: The studies of PCI disappearance were carried out in the cell line Capan-1 by employing various concentrations of PCI.
In three small culture flasks (of 25 cm^2), 5×10^5 cells were placed in each and they were cultivated in medium DMEM+10%FBS until the moment in which, through microscope observation, it could be seen that they had reached 75% of confluence. At this moment, the medium was removed and was substituted by new DMEM+10%FBS (50 μg/mL flask) and by medium with 200 μg/mL of PCI (flask 200 μg/mL). The three flasks were cultivated for a further 24 h. From each of these, samples of […] of culture medium were extracted at half hour intervals. In each of these samples, the existing concentration of PCI was determined by employing two methods (described in the bibliography cited in point 4.A.):
Tests of carboxypeptidase A inhibitory activity
In such tests, samples taken from the control flask at the same intervals were used as blanks.
One of the ELISAs that was done with the samples coming from the 200 μg/mL flask was carried out under special conditions in the first step (fixation of the antigens); concretely, by using a concentration of 0.5 M NaCl.

[1] = test system: human pancreatic adenocarcinoma cell line Capan-1; experiment: Proliferation test with tetrazolium salts, Capan-1 in medium with serum; assay type: cell-based; conditions: 23 days
Method: In this test, with the aim of determining whether the presence of PCI in the culture medium produces some effect on the growth in vitro of the cellular lines, the final amount of cells was evaluated after a specific number of days, in presence and absence of inhibitor. The final number of cells was determined by means of tetrazolium salts (kit EZ4U) which, being added to the cultures, are reduced by mitochondrial enzymes of the cells, producing derivatives of formazan of a different colour. The amount of formed derivatives depends on the number of existing cells.
1. In a culture plate of 96 wells, in 48 of them, 5,000 cells were seed. Of these 48:
In 8 wells (control), 200 μL of full medium (DMEM+10%FBS) were added without PCI. […]
2. The cells were kept in an incubator at 37° C., 87% of relative humidity and 10% of CO2. The medium contained in the wells was changed every 3-4 days. The old medium was sucked out with a Pasteur pipette. Medium free of PCI was added to the control wells and, to the others, a medium with identical concentration of PCI to which they had previously, was also added.
3. After a specific number of days, the number of cells per well was evaluated by means of the following procedure:
To calculate the result of the test, the following was done: the average of the A620 of the blank ones was substracted from the A620 of each well. Immediately after, the result of the previous subtraction, as well as the average of the A450 of the blank ones was substracted from the A450 of each well. The result thus obtained is directly proportional to the amount of cells present in the well. Next, the average and the typical deviation was obtained from the results of the wells which had undergone identical treatment.
The effect of the presence of the PCI can be expressed employing the cell growth percentage in relation to the controls (without PCI) which is easily calculated: [formula]
A proliferation test with indirect determination of the number of cells by means of tetrazolium salts using the cell line Capan-1 was carried out. This is a human pancreatic adenocarcinoma cell line (ATCC nr. HTB-79), established by Fogh, G. et al. (1977) J. Natl. Cancer Inst., 58: 209-214, and Fogh, J. et al. (1977) J. Natl. Cancer Inst., 59: 221-226, from a liver metastasis.
As it has been explained, the cells were cultivated for 23 days, after which the cell growth was evaluated per well by means of tetrazolium salts. The results obtained are expressed in Table 3, where the average, the standard deviation and the standard error of the cell growth in relation to the controls are shown.

[2] = test system: human pancreatic adenocarcinoma cell line Capan-1; experiment: Flow cytometry analysis of cell cycle phases; assay type: cell-based; conditions: 50 µg/mL of PCI

## PCI: potato carboxypeptidase inhibitor, isoform IIa, obtained by recombinant DNA techniques in E. coli (SEQ ID NO.2) (EQHADPICNKPCKTHDDCSGAWFCQACWNSARTCGPYVG; disulfide 12-27, 18-34, 8-24)
Cell line Capan-1
  internalization (disappearance of PCI from the culture medium): clearly internalized by the cells
[1]; 0.1 µg/mL PCI in the medium, DMEM+10%FBS
  Growth (Percentage in relation to the average of the controls): 19.4%
[1]; 1 µg/mL PCI in the medium
  Growth (Percentage in relation to the average of the controls): 17.1%
[1]; 10 µg/mL PCI in the medium
  Growth (Percentage in relation to the average of the controls): 50.0%
[1]; 50 µg/mL PCI in the medium
  Growth (Percentage in relation to the average of the controls): 44.8%
[1]; 200 µg/mL PCI in the medium
  Growth (Percentage in relation to the average of the controls): 43.3%
[1]; concentrations of 0.1 and 1 μg/mL
  inhibition of the growth: higher than 80%
[1]; concentrations of 10, 50 and 200 μg/mL
  inhibition of the growth: ~50%
[2]; 24 h (control 6.4)
  % G2 M: 4.7%
[2]; 24 h (control 14.3)
  % S: 20.4%
[2]; 24 h (control 79.2)
  % G1: 74.9%
[2]; 48 h
  % G1: 85.3%
  % G2 M: 3.7%
  % S: 11%
[2]; 72 h
  % G1: 85.1%
  % G2 M: 4%
  % S: 10.9%
[2]; 96 h
  % G1: 88.5%
  % G2 M: 3.9%
  % S: 7.6%

Source: patent US6379959B1, “Metalocarboxypeptidase inhibitors and derived molecules used as antitumor agents” (Universitat Autonoma de Barcelona, priority 1996, dated 2002)
